What all share (assay): NCI tumour cell line growth inhibition, 48 h
For assay [1], the system named is HT-29.
The subject of assay [2] is HCT-15.
Assay [3] relates to A549.
The subject of assay [4] is RPMI-8226.
The subject of assay [5] is HOP-92.
Assay [6] has as its system OVCAR-4.
Assay [7] deals with EKVX.
Assay [8] deals with HCT-116.
The subject of assay [9] is SK-MEL-28.
The subject of assay [10] is OVCAR-8.
Assay [11] has as its system SW-620.
The test system of assay [12] is SF-539.
For assay [13], the system named is LOX IMVI.
Assay [14] concerns NCI-H460.
Assay [15] concerns SK-OV-3.
For assay [16], the system named is PC-3.
The subject of assay [17] is Hs-578T.
Assay [18] relates to HOP-62.
Assay [19] deals with T47D.

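All cell lines were grown in 96-well plates and treated with compound for 48 hours. The concentration for 50% growth inhibition is given as GI50.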 Calls of active or inactive are those of the source. Rule as the data show it: active = GI50 up to about 1.1 µM and inactive = higher.

Consider 13 compounds from ChEMBL document CHEMBL1201862, “PubChem BioAssay data set” (2004).

With `Cc1cccc(/N=C2\NC(=O)C(CC(=O)Nc3ccc(C)cc3C)S2)c1` (centres undefined), the GI50 in assay [1] is > 100 µM (inactive); in assay [2] it was more than 100 µM; in assay [3], > 100 µM (inactive); in assay [4] it was 55.3 µM (inactive); in [5], 55.7 µM (inactive); in assay [6], 48.5 µM (inactive). The GI50 was 47.1 µM (inactive) in [7]; > 100 µM (inactive) in assay [8]; > 100 µM (inactive) in [9]; 70.6 µM (inactive) in assay [10]; > 100 µM (inactive) in assay [11]; > 100 µM (inactive) in [12]. The GI50 in [13] and in [14] was > 100 µM (inactive) throughout.

With `Cc1cc(-c2ccc(C(=O)O)[nH]2)on1`, the GI50 in assay [1] is 27.1 µM (inactive); in assay [2] it was 20.2 µM; in assay [3], 34.8 µM (inactive); in assay [15], 32.6 µM (inactive); in [4], 62.7 µM (inactive); in assay [5] it was 66.7 µM (inactive). In addition, the GI50 in assay [6] is > 100 µM (inactive); in assay [16], 68.5 µM (inactive); in assay [7] it was 42.1 µM (inactive); in [8], 29.2 µM (inactive); in assay [9] it was > 100 µM (inactive); in assay [10], 61.4 µM (inactive). Moreover, the GI50 in assay [11] is 30.1 µM (inactive); in [17], 49.2 µM (inactive); in assay [18] it was 65.2 µM (inactive); in assay [14], 40.6 µM (inactive).

With `CC1=C2C(O)C(C(C)CO)C(O)CC2(C)C(O)CC1` (centres undefined), the GI50 is > 100 µM (inactive) in assay [1]; more than 100 µM in [2]; > 100 µM (inactive) in [3]; > 100 µM (inactive) in assay [15]; > 100 µM (inactive) in [4]; > 100 µM (inactive) in assay [5]. Further, the GI50 in assay [6], in assay [7], in [8], in assay [9], in [10] and in assay [11] was > 100 µM (inactive) each time. Also, the GI50 in [12], in assay [18], in assay [13] and in assay [14] was > 100 µM (inactive) each time.

Regarding `CCOC(=O)C1CC(O)C(=O)N1C` (centres undefined), the GI50 in assay [1] is > 100 µM (inactive); in assay [2] it was more than 100 µM; in assay [3], > 100 µM (inactive); in [15], > 100 µM (inactive); in assay [4], > 100 µM (inactive); in assay [5] it was > 100 µM (inactive). Besides, the GI50 in [6], in [19], in assay [16], in assay [7], in [8] and in [9] was > 100 µM (inactive) in each case. Besides, the GI50 in assay [12], in assay [18] and in [13] was > 100 µM (inactive) each time.

Turning to `O=C(Nc1nc(C23CC4CC(CC(C4)C2)C3)cs1)c1cc2ccc(O)cc2oc1=O`, the GI50 in assay [1] was 14.4 µM (inactive); in assay [2], 4.46 µM; in assay [3] it was 15.9 µM (inactive); in assay [4], 5.35 µM (inactive); in assay [5], 3.7 µM (inactive); in assay [6], 8.26 µM (inactive). In addition, the GI50 was 13.5 µM (inactive) in assay [16]; 13.2 µM (inactive) in [7]; 10.1 µM (inactive) in assay [8]; 15.1 µM (inactive) in [9]; 6.67 µM (inactive) in [10]; 10.3 µM (inactive) in assay [11]. Also, the GI50 in assay [12] is 17.1 µM (inactive); in [17], 14.5 µM (inactive); in assay [18], 15.2 µM (inactive); in assay [13], 8.07 µM (inactive); in assay [14] it was 6.5 µM (inactive).

Take `C=CCNc1ccc(C)cc1`: the GI50 is > 100 µM (inactive) in assay [1]; more than 100 µM in assay [2]; > 100 µM (inactive) in assay [3]; > 100 µM (inactive) in [5]; > 100 µM (inactive) in assay [6]; > 100 µM (inactive) in [19]. Further, the GI50 in [16], in [8], in [9], in [10], in assay [11] and in assay [17] was > 100 µM (inactive) each time. Moreover, the GI50 in assay [13] and in assay [14] was > 100 µM (inactive) in each case.

`O=C1/C(=C\c2cccc(Oc3ccccc3)c2)S(=O)(=O)C(c2ccccc2)N1c1ccc(Cl)cc1` (centres undefined): the GI50 in [1] was 14.3 µM (inactive); in assay [2] it was 13.7 µM; in assay [3], 42.9 µM (inactive); in assay [15], 32.2 µM (inactive); in [4], 12.3 µM (inactive); in [5] it was 14 µM (inactive). The GI50 was 13.1 µM (inactive) in [6]; 5.55 µM (inactive) in [19]; 17.1 µM (inactive) in [16]; 23 µM (inactive) in assay [7]; 13.9 µM (inactive) in assay [8]; 17.8 µM (inactive) in assay [9]. Also, the GI50 in assay [10] is 16.9 µM (inactive); in assay [11], 16.7 µM (inactive); in assay [12], 23.7 µM (inactive); in [18], 27.8 µM (inactive); in [13], 10.4 µM (inactive); in [14], 14.2 µM (inactive).

Turning to `CCOC(=O)C1(C(=O)OCC)COS(=O)OC1`, the GI50 was > 100 µM (inactive) in assay [1]; 19.2 µM in assay [2]; > 100 µM (inactive) in [3]; > 100 µM (inactive) in [15]; 12.6 µM (inactive) in [5]; 20.7 µM (inactive) in assay [6]. Moreover, the GI50 was 19.9 µM (inactive) in assay [19]; > 100 µM (inactive) in assay [16]; 17.4 µM (inactive) in assay [8]; 35.1 µM (inactive) in [9]; 45.1 µM (inactive) in assay [10]; 18.6 µM (inactive) in [11]. For the same compound, the GI50 in assay [17] was 83.6 µM (inactive); in assay [13] it was 13.2 µM (inactive); in assay [14] it was 21.3 µM (inactive).

Consider `Nc1ccc(Oc2ccc(C3(c4ccc(Oc5ccc(N)cc5)cc4)C4CC5C6CC7CC5C3C(C7)C6C4)cc2)cc1`, for which the GI50 in assay [1] is 0.774 µM (active); in assay [2], 20.1 µM; in assay [3], 0.706 µM (active); in assay [4], 14.8 µM (inactive); in assay [5] it was 0.668 µM (active); in assay [6] it was 18.8 µM (inactive). Moreover, the GI50 in assay [16] is > 45.4 µM (inactive); in assay [7], 27 µM (inactive); in assay [8], 18.3 µM (inactive); in assay [9] it was > 100 µM (inactive); in [10], 4.97 µM (inactive); in assay [11], 97.3 µM (inactive). Also, the GI50 in assay [12] was 42.5 µM (inactive); in assay [17], 62.5 µM (inactive); in [18], 72.9 µM (inactive); in assay [13], 6.01 µM (inactive); in [14] it was 21.1 µM (inactive).

On to `CCc1nnc(-n2c(C)nc3cc(Cl)ccc3c2=O)s1`, for which the GI50 is 35.2 µM (inactive) in assay [1]; 44.1 µM in [2]; 31 µM (inactive) in [3]; 38.4 µM (inactive) in assay [15]; 27 µM (inactive) in [5]; 28.8 µM (inactive) in assay [6]. Moreover, the GI50 is 27.9 µM (inactive) in assay [19]; 52.8 µM (inactive) in assay [16]; 49.2 µM (inactive) in assay [7]; 26.4 µM (inactive) in [8]; 46.6 µM (inactive) in [9]; 51.4 µM (inactive) in [10]. In addition, the GI50 is 34.8 µM (inactive) in assay [11]; 28.2 µM (inactive) in assay [17]; 45.4 µM (inactive) in assay [18]; 39.1 µM (inactive) in assay [13]; 40.5 µM (inactive) in assay [14].

For the compound `CC1(C)CCC2=C(O1)c1ccccc1/C(=N/c1ccc([N+](=O)[O-])cc1)C2=O`, the GI50 in assay [1] was 12.7 µM (inactive); in assay [2], 31 µM; in assay [3], 16.4 µM (inactive); in [15], 17.7 µM (inactive); in [5], 39.1 µM (inactive); in [6] it was 15.1 µM (inactive). The GI50 in assay [19] is 11.8 µM (inactive); in assay [16], 14 µM (inactive); in assay [7], 16.4 µM (inactive); in [8], 7.33 µM (inactive); in assay [9], 16.3 µM (inactive); in assay [10], 14 µM (inactive). Besides, the GI50 in assay [11] was 16.1 µM (inactive); in assay [17] it was 29 µM (inactive); in assay [18], 17.1 µM (inactive); in [14], 15.5 µM (inactive).

On to `CCCCCCCCCCCCCCCCC1=CC(=O)C=C(OC)C1=O`, for which the GI50 in [1] was > 100 µM (inactive); in assay [2], 66.8 µM; in [3], 89.5 µM (inactive); in [15] it was > 100 µM (inactive); in assay [4], 91.2 µM (inactive); in [5], 56.8 µM (inactive). Also, the GI50 in [6] was > 100 µM (inactive); in [16], 80.4 µM (inactive); in assay [7], > 100 µM (inactive); in assay [8], 56 µM (inactive); in [9], > 100 µM (inactive); in assay [10], 49.3 µM (inactive). Besides, the GI50 in assay [11] is > 100 µM (inactive); in assay [12], 47.3 µM (inactive); in [17], 37.6 µM (inactive); in [18], > 100 µM (inactive); in assay [13], 65.3 µM (inactive); in [14], 34.4 µM (inactive).

`CCOC(=O)CCCOc1cc(-c2ccccc2F)nc2cc3c(cc12)OCO3`: the GI50 in assay [1] was 43.7 µM (inactive); in assay [2], 3.29 µM; in [3], > 100 µM (inactive); in [15], > 100 µM (inactive); in assay [4] it was 28.4 µM (inactive); in [5], > 100 µM (inactive). In addition, the GI50 in [6] was 3.71 µM (inactive); in [19] it was 25.5 µM (inactive); in assay [16], 29.6 µM (inactive); in [7], 40.6 µM (inactive); in assay [9], 73.5 µM (inactive); in assay [10], > 100 µM (inactive). Besides, the GI50 in [11], in assay [12], in assay [18] and in [13] was > 100 µM (inactive) in each case.
